Source: patent US20110319329A1, “USE OF SO[…] IN CLUSTER HEADACHE” (priority 2007, published 2011)
Like-named read-outs stand apart in the source and are kept apart here. Numbered stars: 1 amine (or outer) side, 2 acyl side, 3 side chain; on linkers, the order of the positions; unused ones are H or OH. Square brackets hold non-standard residues; d marks the D form. Side chains are listed from the residue outwards. Peptide text beside a SMILES is read from it. * marks the point of attachment. Ethylenediamine = C(CN[*:2])N[*:1]; Hyp = O=C(O)[C@@H]1C[C@@H](O)CN1; Phg = N[C@H](C(=O)O)c1ccccc1; CO = O=C([*:1])[*:2]; Bn = c1ccc(C*)cc1

Key:
[1] = cited from earlier work
[2] = partition coefficient (lipophilicity)

For `C[C@@H](O)[C@@H]1NC(=O)[C@H](CCCCN)NC(=O)[C@@H](Cc2c[nH]c3ccccc23)NC(=O)[C@H](Cc2ccccc2)NC(=O)[C@@H](NC(=O)[C@H](N)Cc2ccccc2)CSSC[C@@H](C(=O)N[C@H](CO)[C@@H](C)O)NC1=O` [octreotide], the half-life ([1]; octapeptide analog, can be given subcutaneously) is given as “approximately 1.5 hours” and the logP [2] is given as 5.5.
For somatostatin, the half-life ([1]; native somatostatin, necessitates intravenous infusion) is listed as “several minutes”.
`NCCCC[C@@H]1NC(=O)[C@@H](Cc2c[nH]c3ccccc23)NC(=O)[C@H](c2ccccc2)NC(=O)[C@@H]2C[C@@H](OC(=O)NCCN)CN2C(=O)[C@H](Cc2ccccc2)NC(=O)[C@H](Cc2ccc(OCc3ccccc3)cc2)NC1=O` [pasireotide, cyclo[{4-(NH2—C2H4—NH—CO—O-)Pro}-Phg-DTrp-Lys-Tyr(4-Bzl)-Phe]] (cyclo([Hyp]([CO-Ethylenediamine])[Phg][dW]KY(Bn)F); ring closure inferred) showed a logP [2] of 2.7.
